Results taken from publication PMC13696528, “Combined Immune‐Peptide Nanofiber with HSP70/AKT/mTOR Axis Blockade Enhances Photothermal Immunotherapy, Inhibiting Tumor Growth and Recurrence” (Advanced Science, 2026).

Tests used:
CT26 cells = test: Colony formation assay after PTIT; assay type: cell-based, mouse; conditions: PSP@IR-CF3 + NIR plus VER-155008 (0.2 μM) or Rapa (10 nM), 14 days, n = 3
Protocol: CT26 cells were harvested and prepared as a single-cell suspension. […] Following the indicated treatments, cells were cultured under standard conditions (37 °C, 5% CO₂) for 14 days until visible colonies had formed.
The culture medium was then removed, and the cells were gently washed with PBS. Colonies were fixed with 4% paraformaldehyde for 10–15 min and stained with crystal violet for 10–20 min. Excess dye was removed by washing with distilled water, and the plates were air-dried. Colonies were quantified using ImageJ software (RRID:SCR_003070).

[1] = system: CT26-Luc tumor-bearing mice; test: In vivo recurrence study with HSP70 inhibition; design: species or system mouse; conditions: combined with PTIT (PSP@IR-CF3 + NIR), VER-155008 20 mg kg⁻¹ d⁻¹ i.p. 7 days, n = 10, 28 days
Protocol: CT26-Luc cells were cultured under standard conditions and harvested during the logarithmic growth phase. BALB/c mice were subcutaneously inoculated with CT26-Luc cells to establish tumor-bearing models.
In the combination group, the HSP70 inhibitor VER-155008 was administered via intraperitoneal injection at a dose of 20 mg kg⁻¹ d⁻¹ for 7 consecutive days beginning immediately after NIR irradiation. Tumor growth was monitored regularly, and mice were followed for 28 days after treatment to evaluate tumor recurrence. Tumor recurrence was defined as the reappearance of measurable tumor growth at the original treatment site following initial tumor regression.

Row | SMILES | colony formation and clonogenic recovery after PTIT (CT26 cells) | recurrent tumors [1]
1 | CO[C@H]1C[C@@H]2CC[C@@H](C)[C@@](O)(O2)C(=O)C(=O)N2CCCC[C@H]2C(=O)O[C@H]([C@H](C)C[C@@H]2CC[C@@H](O)[C@H](OC)C2)CC(=O)[C@H](C)/C=C(\C)[C@@H](O)[C@@H](OC)C(=O)[C@H](C)C[C@H](C)/C=C/C=C/C=C/1C [Rapamycin, rapamycin] | reduced colony formation and impaired clonogenic recovery | 
2 | N#Cc1ccc(COC[C@H]2O[C@@H](n3c(NCc4ccc(Cl)c(Cl)c4)nc4c(N)ncnc43)[C@H](O)[C@@H]2O)cc1 [VER-155008] | reduced colony formation and impaired clonogenic recovery | no recurrent tumors
